Publication PMC12652692, “Synthesis and In Vitro Anticancer Evaluation of Novel Phosphonium Derivatives of Chrysin” (International Journal of Molecular Sciences, 2025)

Key:
Experiment in all cases: NCI60 five-dose screen
Assay type in all cases: cell-based
CAKI-1 = conditions: Homo sapiens; CAKI-1, Renal Cancer
Procedure: (§1) Since all new conjugates (3a–h) had notable antiproliferative activities on several tumor cell lines in the course of the one-dose screening, they were subjected to a five-dose test. […] J. Mol. Sci. 2025, 26, 11063 10 of 10 S.3. NCI60 Screening A detailed description of the NCI screening procedures can also be found on the website of NCI [39], and in our previous work. S.3.1. One-Dose Screen All candidates were examined at first at a single high dose (10 μM) in the full NCI60 cell panel. The value reported for the one-dose test is growth relative to the no-drug control and relative to the time zero number of cells. This made possible the disclosure of both growth inhibition (numbers between 0 and 100) and lethality (numbers less than 0). For example, a value of 100 means no growth inhibition. A value of 20 would mean 80% growth inhibition. A value of 0 means no net growth over the course of the analysis. A value of −20 would mean 20% lethality. A value of −100 means all cells are dead. S.3.2. […] The human tumor cell lines of the cancer screening panel were grown in RPMI 1640 medium containing 5% fetal bovine serum and 2 mM l-glutamine. Characteristically, cells were injected in 96-well microtiter plates in 0.1 mL at plating densities ranging from 5000 to 40,000 cells/well, depending on the doubling time of individual cell lines. After cell inoculation, the microtiter plates were incubated at 37 °C, 5% carbon dioxide, 95% air, and 100% relative humidity for 24 hours before the addition of tested compounds. After 24 hours, 2 plates of each cell line were fixed in situ with Cl3COOH (TCA), to represent a measurement of the cell population for each cell line at the time of drug addition (tz). Tested compounds were solubilized in DMSO at 400-fold the desired final maximum test concentration and stored frozen before application. In the course of the drug addition, an aliquot of frozen concentrate was thawed and diluted to twice the desired final maximum test concentration with a complete medium containing 50 μg mL−1 gentamicin. Additional four, 10-fold or ½ log serial dilutions were produced to furnish a total of five drug concentrations plus control. Aliquots of 0.1 mL of these different drug dilutions were added to the appropriate microtiter wells already containing 0.1 mL of medium, resulting in the required final drug concentrations. Following drug addition, the plates were incubated at 37 °C, 5% carbon dioxide, 95% air, and 100% relative humidity for an additional 48 hours. For adherent cells, the test was finished by the addition of cold Cl3COOH. Cells were fixed in situ by the addition of 50 μL of cold 50% (w/v) Cl3COOH, and incubated at 4 °C for 1 hour. The supernatant was discarded, and the plates were washed with H2O (5×) and dried in air. Sulforhodamine B (SRB) solution (0.1 mL) at 0.4% (w/v) in 1% CH3COOH was added to each well, and plates were incubated at RT for 10 min. After staining, the unbound dye was removed by washing five times with 1% CH3COOH, and the plates were dried in the air. The bound stain is afterward solubilized with a 10 mM trizma base, and the absorbance is read on an automated plate reader at λ = 515 nm. Utilizing the seven absorbance measurements [time zero (tz), control growth (c), and test growth in the presence of the drug at the five concentration levels (ti)], the percentage growth was determined at each of the drug concentration levels. Growth inhibition (%) was calculated as: [(ti − tz)/(c − tz)] × 100, for concentrations where ti ≥ tz (1) [(ti − tz)/(tz)] × 100, for concentrations where ti < tz. (2) Three dose‒response parameters were calculated as follows. GI50 (growth inhibition of 50%) was determined from Equation (3), which is the drug concentration resulting in a 50% reduction in the net protein increase (as measured by SRB staining) in control cells in the course of the drug incubation. [(ti − tz)/(c − tz)] × 100 = 50 (3)

DU-145 = conditions: Homo sapiens; DU-145, Prostate Cancer
Procedure: as §1

HOP-92 = conditions: Homo sapiens; HOP-92, Non-small-Cell Lung Cancer
Procedure: as §1

M14 = conditions: Homo sapiens; M14, Melanoma
Procedure: as §1

MCF7 = conditions: Homo sapiens; MCF7, Breast Cancer
Procedure: as §1

MDA-MB-468 = conditions: Homo sapiens; MDA-MB-468, Breast Cancer
Procedure: as §1

MDA-MB231ATCC = conditions: Homo sapiens, MDA-MB-231, Breast Cancer
Procedure: as §1

MOLT-4 = conditions: Homo sapiens; MOLT-4, Leukemia
Procedure: as §1

NCI-H23 = conditions: Homo sapiens; NCI-H23, Non-small-Cell Lung Cancer
Procedure: as §1

NCI/ADR-RES = conditions: Homo sapiens, Ovarian Cancer
Procedure: as §1

OVCAR-5 = conditions: Homo sapiens; OVCAR-5, Ovarian Cancer
Procedure: as §1

OVCAR-8 = conditions: Homo sapiens; OVCAR-8, Ovarian Cancer
Procedure: as §1

RPMI-8226 = conditions: Homo sapiens; RPMI-8226, Leukemia
Procedure: as §1

SF-295 = conditions: Homo sapiens; SF-295, CNS Cancer
Procedure: as §1

SK-MEL-2 = conditions: Homo sapiens; SK-MEL-2, Melanoma
Procedure: as §1

SK-MEL-5 = conditions: Homo sapiens; SK-MEL-5, Melanoma
Procedure: as §1

SK-OV-3 = conditions: Homo sapiens; SK-OV-3, Ovarian Cancer
Procedure: as §1

SNB-19 = conditions: Homo sapiens; SNB-19, CNS Cancer
Procedure: as §1

SNB-75 = conditions: Homo sapiens; SNB-75, CNS Cancer
Procedure: as §1

SR = conditions: Homo sapiens, Leukemia
Procedure: as §1

SW-620 = conditions: Homo sapiens; SW-620, Colon Cancer
Procedure: as §1

U251 = conditions: Homo sapiens, U-251; U251, CNS Cancer
Procedure: as §1

SMILES	GI50 (CAKI-1) [nM]	GI50 (DU-145) [nM]	GI50 (HOP-92) [nM]	GI50 (M14) [nM]	GI50 (MCF7) [nM]	GI50 (MDA-MB-468) [nM]	GI50 (MDA-MB231ATCC) [nM]	GI50 (MOLT-4) [nM]	GI50 (NCI-H23) [nM]	GI50 (NCI/ADR-RES) [nM]	GI50 (OVCAR-5) [nM]	GI50 (OVCAR-8) [nM]	GI50 (RPMI-8226) [nM]	GI50 (SF-295) [nM]	GI50 (SK-MEL-2) [nM]	GI50 (SK-MEL-5) [nM]	GI50 (SK-OV-3) [nM]	GI50 (SNB-19) [nM]	GI50 (SNB-75) [nM]	GI50 (SR) [nM]	also measured
O=c1cc(-c2ccccc2)oc2cc(OCCCC[P+](c3ccccc3)(c3ccccc3)c3ccccc3)cc(O)c12 [3a]	385	507	234	378	291	128	240	338	302	3290	1150	350	205	297	238	166	329	279	165	289	GI50 (SW-620): 343 nM; GI50 (U251): 315 nM
Cc1ccc([P+](CCCCOc2cc(O)c3c(=O)cc(-c4ccccc4)oc3c2)(c2ccc(C)cc2)c2ccc(C)cc2)cc1 [3b]	228	223	163	331	268	123	320	322	241	1180	684	337	144	215	246	153	301	295	219	261	GI50 (SW-620): 354 nM; GI50 (U251): 279 nM
COc1ccc([P+](CCCCOc2cc(O)c3c(=O)cc(-c4ccccc4)oc3c2)(c2ccc(OC)cc2)c2ccc(OC)cc2)cc1 [3c]	1030	410	252	478	407	248	315	453	423	2600	852	408	235	1060	301	331	382	333	344	300	GI50 (SW-620): 351 nM; GI50 (U251): 276 nM
O=c1cc(-c2ccccc2)oc2cc(OCCCC[P+](c3ccc(F)cc3)(c3ccc(F)cc3)c3ccc(F)cc3)cc(O)c12 [3d]	1780	1720	1320	1750	1620	1100	1910	1900	1650	15900	3000	1840	1310	1520	1730	1510	1620	1670	1670	1990	GI50 (SW-620): 1460 nM; GI50 (U251): 1670 nM
O=c1cc(-c2ccccc2)oc2cc(OCCCC[P+](C3CCCCC3)(C3CCCCC3)C3CCCCC3)cc(O)c12 [3e]	1570	1240	211	515	956	273	366	1010	1340	8440	1300	595	182	1400	1320	369	1470	505	529	260	GI50 (SW-620): 649 nM; GI50 (U251): 287 nM
COc1c(C)cc([P+](CCCCOc2cc(O)c3c(=O)cc(-c4ccccc4)oc3c2)(c2cc(C)c(OC)c(C)c2)c2cc(C)c(OC)c(C)c2)cc1C [3f]	275	339	165	329	260	64	258	238	283	1580	335	350	110	240	292	168	263	276	213	162	GI50 (SW-620): 323 nM; GI50 (U251): 67 nM
Cc1ccccc1[P+](CCCCOc1cc(O)c2c(=O)cc(-c3ccccc3)oc2c1)(c1ccccc1C)c1ccccc1C [3g]	309	376	255	335	267	148	337	235	243	2140	1720	560	135	648	194	198	277	353	274	206	GI50 (SW-620): 274 nM; GI50 (U251): 225 nM
O=c1cc(-c2ccccc2)oc2cc(OCCCC[P+](c3ccccc3)(c3ccccc3)c3ccccn3)cc(O)c12 [3h]	1540	1220	346	564	396	176	906	424	776	7550	1440	494	248	1360	758	278	1520	524	572	214	GI50 (SW-620): 901 nM; GI50 (U251): 335 nM
